Measurements reported in BindingDB's records for doi:10.1021/jm020072w (University of California, 2002).

Biological target: juvenile hormone esterase (Trichoplusia ni)
Assay: In vitro inhibition of Trichoplusia Juvenile Hormone Esterase.

SMILES	IC50 [µM]
CCCCCCC=CC(=O)C(F)(F)F	79.4
CCCCCCOCC(C)=O	490
CCCCCCCCC(=O)C(F)(F)F	6.76
CCCCCCCCC(=O)C(F)F	10
CCCCCC[Se](=O)CC(=O)C(F)(F)F (configuration not stated)	0.000537
CCCCCCOCC(=O)C(F)(F)F	0.0832
CCCCCCC#CC(=O)C(F)(F)F	0.398
